Measurements as given in patent publication US9688670B2, “Benzimidazole compounds and medical uses thereof” (Sumitomo Dainippon Pharma Co., Ltd., priority 2015, dated 2017).

Target: human SCN9A (Nav 1.7) (Homo sapiens, UniProt Q15858)
Assay: Measurement of Na ion current (Nav 1.7 current) by automated patch clamp assay using cells stably-expressing human SCN9A
Type: cell-based
Settings: concentration of each compound 10 μmol/L, holding potential inactivating 50% Nav 1.7 channel (around −60 mV), room temperature
Procedure: Measurement of Na Ion Current in Voltage-Dependent Na Channel Gene Expressed Cell Nav 1.7 current was measured by automated patch clamp assay using cells stably-expressing human SCN9A. Cells Stably-Expressing Human SCN9A Tetracycline-induced cells stably-expressing SCN9A were obtained from ChanTest Corporation. […] Next day, the Na ion current was measured by automated patch clamp assay. Electrophysiologic Measurement of Na Ion Current The Na ion current was measured by automated patch clamp assay using the following extracellular solution and intracellular solution. […] The control of the stimulating pulse and the data acquisition were carried out using EPC10 amplifier and Patch Master Software (HEKA). Data were sampled at 10 kHz, and low-pass filtered at 3 kHz. All the measurements were carried out at room temperature. […] The inhibitory rate of the Na ion current by the test compounds was calculated according to the following calculating formula with the peak current value generated by the depolarizing pulse. […] The inhibitory rate of Na ion current by each Example Compound was evaluated.

human SCN9A (Nav 1.7), sequence (Q15858 whole entry): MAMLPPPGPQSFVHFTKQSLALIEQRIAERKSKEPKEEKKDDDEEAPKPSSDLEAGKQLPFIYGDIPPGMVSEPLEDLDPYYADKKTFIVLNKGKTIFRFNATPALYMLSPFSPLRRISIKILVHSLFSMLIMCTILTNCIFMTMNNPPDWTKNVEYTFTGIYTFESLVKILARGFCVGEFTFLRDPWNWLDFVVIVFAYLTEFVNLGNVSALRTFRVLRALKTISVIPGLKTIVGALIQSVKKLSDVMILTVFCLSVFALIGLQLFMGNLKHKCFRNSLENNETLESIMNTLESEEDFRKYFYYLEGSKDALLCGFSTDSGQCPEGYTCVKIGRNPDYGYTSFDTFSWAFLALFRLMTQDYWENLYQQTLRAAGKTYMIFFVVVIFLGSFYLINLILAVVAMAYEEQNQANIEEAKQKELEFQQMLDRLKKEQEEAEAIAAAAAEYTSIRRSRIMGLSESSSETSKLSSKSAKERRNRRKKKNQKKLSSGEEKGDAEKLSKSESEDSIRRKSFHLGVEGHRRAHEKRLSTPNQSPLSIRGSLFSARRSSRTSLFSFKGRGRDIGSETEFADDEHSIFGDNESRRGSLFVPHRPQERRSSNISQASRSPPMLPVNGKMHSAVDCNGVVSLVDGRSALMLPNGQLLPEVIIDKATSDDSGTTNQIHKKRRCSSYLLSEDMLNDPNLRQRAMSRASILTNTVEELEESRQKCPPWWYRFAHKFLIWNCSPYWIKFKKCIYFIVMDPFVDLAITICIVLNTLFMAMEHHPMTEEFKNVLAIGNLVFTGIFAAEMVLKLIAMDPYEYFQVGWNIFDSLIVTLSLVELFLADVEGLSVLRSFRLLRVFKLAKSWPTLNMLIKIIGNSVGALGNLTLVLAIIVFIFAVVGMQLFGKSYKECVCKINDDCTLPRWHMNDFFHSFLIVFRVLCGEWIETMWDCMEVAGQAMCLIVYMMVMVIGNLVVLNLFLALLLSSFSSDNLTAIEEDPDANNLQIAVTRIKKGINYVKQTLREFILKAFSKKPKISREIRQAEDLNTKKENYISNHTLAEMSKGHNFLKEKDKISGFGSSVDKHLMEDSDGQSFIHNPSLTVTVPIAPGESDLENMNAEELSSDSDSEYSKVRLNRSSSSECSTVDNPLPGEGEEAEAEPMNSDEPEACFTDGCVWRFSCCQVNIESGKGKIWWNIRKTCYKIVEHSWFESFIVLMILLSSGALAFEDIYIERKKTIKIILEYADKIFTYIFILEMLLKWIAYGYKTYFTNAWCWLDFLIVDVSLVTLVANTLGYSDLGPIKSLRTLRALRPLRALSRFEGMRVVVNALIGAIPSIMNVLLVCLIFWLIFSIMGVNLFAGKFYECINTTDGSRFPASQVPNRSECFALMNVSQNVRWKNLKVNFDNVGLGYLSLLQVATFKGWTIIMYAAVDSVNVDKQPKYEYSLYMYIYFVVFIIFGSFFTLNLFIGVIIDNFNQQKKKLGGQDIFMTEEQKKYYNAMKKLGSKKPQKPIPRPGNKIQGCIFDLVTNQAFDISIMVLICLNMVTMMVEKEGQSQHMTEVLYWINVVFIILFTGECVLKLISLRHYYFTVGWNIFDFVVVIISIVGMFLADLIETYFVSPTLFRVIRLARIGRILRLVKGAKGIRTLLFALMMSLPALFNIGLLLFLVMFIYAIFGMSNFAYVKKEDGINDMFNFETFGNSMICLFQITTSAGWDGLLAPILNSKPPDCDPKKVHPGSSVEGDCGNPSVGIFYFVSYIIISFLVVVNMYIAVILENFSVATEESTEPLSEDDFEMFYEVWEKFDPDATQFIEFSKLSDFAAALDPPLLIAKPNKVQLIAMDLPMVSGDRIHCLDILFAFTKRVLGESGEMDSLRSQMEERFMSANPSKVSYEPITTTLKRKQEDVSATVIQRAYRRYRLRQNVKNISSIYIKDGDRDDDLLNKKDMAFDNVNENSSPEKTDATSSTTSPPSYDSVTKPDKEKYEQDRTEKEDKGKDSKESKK

| Inhibitory rate (%) of Na ion current [%] | inhibition at 10 µM (read-out: Inhibitory rate (%) of Na ion current) [%] | Structure (SMILES) |
| --- | --- | --- |
| 15 |  | OC1(Cn2cnc3ccc(Oc4ccc(C(F)(F)F)cc4)cc32)COC1 [Example 90] |
|  | 21 | C[C@]1(O)C[C@@H](n2cnc3ccc(Oc4ccc(C(F)(F)F)cn4)cc32)C1 [Example 121] |
